According to patent US8673908B2, “Kynurenine production inhibitor” (Kyowa Hakko Kirin Co., Ltd., priority 2008, dated 2014):

What follows are compounds tested on kynurenine production in IFN-γ-treated KATO-III cells (assay: Inhibitory activity on kynurenine production (Test Example 1)). Settings: Homo sapiens, IFN-γ treatment, culture for 96 hours, read-out: IC50 value, inhibition of kynurenine production.
Format: cell-based
Method in brief: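 Read-out is absorbance at 480 nm of medium treated with trichloroacetic acid, then p-dimethylaminobenzaldehyde, to quantify kynurenine. DMSO-only wells with and without IFN-γ serve as references. Cells were KATO-III, 2,000 per well, 96 h at 37 °C/5% CO2 with compound (DMSO ≤0.1%) and IFN-γ at 31.25 ng/mL in the added suspension.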

SMILES	IC50 [nM]
CCOC(CCNS(=O)(=O)Nc1nc2ccccc2nc1OC(c1cccnc1)C(F)(F)F)OCC (stereo not drawn) [Compound 272, N-{3-[2,2,2-trifluoro-1-(pyridin-3-yl)ethoxy]quinoxalin-2-yl}-N′-(3,3-diethoxypropyl)-sulfuric diamide]	< 1000
O=CCCNS(=O)(=O)Nc1nc2ccccc2nc1OC(c1cccnc1)C(F)(F)F (stereo not drawn) [Compound 273, N-{3-[2,2,2-trifluoro-1-(pyridin-3-yl)ethoxy]quinoxalin-2-yl}-N′-(3-oxopropyl)-sulfuric diamide]	1000 to 10000
CCCS(=O)(=O)Nc1nc2ccccc2nc1OC(c1cncs1)C(F)(F)F (stereo not drawn) [Compound 276, N-{3-[2,2,2-trifluoro-1-(thiazol-5-yl)ethoxy]quinoxalin-2-yl}propane-1-sulfonamide]	< 1000
CCCS(=O)(=O)Nc1nc2ccccc2nc1OC(c1cncn1C)C(F)(F)F (stereo not drawn) [Compound 277, N-{3-[2,2,2-trifluoro-1-(1-methyl-1H-imidazol-5-yl)ethoxy]-quinoxalin-2-yl}propane-1-sulfonamide]	1000 to 10000
CCCNS(=O)(=O)Nc1nc2ccccc2nc1OC(c1ccc(C)nc1)C(F)(F)F (stereo not drawn) [Compound 280, N-{3-[2,2,2-trifluoro-1-(6-methylpyridin-3-yl)ethoxy]-quinoxalin-2-yl}-N′-propyl-sulfuric diamide]	< 1000
CCCNS(=O)(=O)Nc1nc2ccccc2nc1OC(c1cncs1)C(F)(F)F (stereo not drawn) [Compound 281, N-{3-[2,2,2-trifluoro-1-(thiazol-5-yl)ethoxy]quinoxalin-2-yl}-N′-propyl-sulfuric diamide]	< 1000
CCCNS(=O)(=O)Nc1nc2ccccc2nc1OC(c1cncn1C)C(F)(F)F (stereo not drawn) [Compound 282, N-{3-[2,2,2-trifluoro-1-(1-methyl-1H-imidazol-5-yl)ethoxy]-quinoxalin-2-yl}-N′-propyl-sulfuric diamide]	< 1000
CCCNS(=O)(=O)Nc1nc2ccccc2nc1OC(c1ccc(C)[n+]([O-])c1)C(F)(F)F (stereo not drawn) [Compound 284, 2-methyl-5-{2,2,2-trifluoro-1-[3-(N-propylsulfamoylamino)-quinoxalin-2-yloxy]ethyl}pyridine 1-oxide]	< 1000

Continued, values first:

IC50 [nM]	SMILES
< 1000	O=S(=O)(Nc1nc2ccccc2nc1OC(C1CCSCC1)C(F)(F)F)c1ccccc1Cl (stereo not drawn) [Compound 267, 2-chloro-N-{3-[2,2,2-trifluoro-1-(tetrahydro-2H-thiopyran-4-yl)ethoxy]quinoxalin-2-yl}benzenesulfonamide]
< 1000	C#CCNS(=O)(=O)Nc1nc2ccccc2nc1OC(c1cccnc1)C(F)(F)F (stereo not drawn) [Compound 274, N-{3-[2,2,2-trifluoro-1-(pyridin-3-yl)ethoxy]quinoxalin-2-yl}-N′-(2-propynyl)-sulfuric diamide]
< 1000	CCCS(=O)(=O)Nc1nc2ccccc2nc1OC(c1ccc(Cl)nc1)C(F)(F)F (stereo not drawn) [Compound 278, N-{3-[1-(6-chloropyridin-3-yl)-2,2,2-trifluoroethoxy]-quinoxalin-2-yl}propane-1-sulfonamide]
< 1000	CCCNS(=O)(=O)Nc1nc2ccccc2nc1OC(c1ccc(Cl)nc1)C(F)(F)F (stereo not drawn) [Compound 283, N-{3-[1-(6-chloropyridin-3-yl)-2,2,2-trifluoroethoxy]-quinoxalin-2-yl}-N′-propyl-sulfuric diamide]
< 1000	Cc1ccc(C(Oc2nc3ccccc3nc2NS(=O)(=O)NC2CC2)C(F)(F)F)cn1 (stereo not drawn) [Compound 285, N-{3-[2,2,2-trifluoro-1-(6-methylpyridin-3-yl)ethoxy]-quinoxalin-2-yl}-N′-cyclopropyl-sulfuric diamide]
< 1000	O=S(=O)(Nc1nc2ccccc2nc1OC(c1cncs1)C(F)(F)F)NC1CC1 (stereo not drawn) [Compound 286, N-{3-[2,2,2-trifluoro-1-(thiazol-5-yl)ethoxy]quinoxalin-2-yl}-N′-cyclopropyl-sulfuric diamide]
1000 to 10000	Cn1cncc1C(Oc1nc2ccccc2nc1NS(=O)(=O)NC1CC1)C(F)(F)F (stereo not drawn) [Compound 287, N-{3-[2,2,2-trifluoro-1-(1-methyl-1H-imidazol-5-yl)ethoxy]-quinoxalin-2-yl}-N′-cyclopropyl-sulfuric diamide]
